Data from the supplement of paper PMC8612539.
≈ marks a conversion by molar mass, not a printed value.

Key:
[1] = tested on: Enterococcus spp.; assay: minimum inhibitory concentration (MIC)
Procedure: (§1)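 Broth microdilution MIC (Sensititre BOPO7F bovine plate, CLSI methods) of 19 antimicrobials against field isolates of P. multocida, M. haemolytica, H. somni (deep nasopharyngeal swabs) and E. coli, Enterococcus spp. (rectal swabs) from weaned dairy heifers. Incubation 16-24 h at 35 C. MIC is the lowest concentration preventing visible growth. Values with <= or > lie at the tested range limits. Trimethoprim-sulfamethoxazole is given as the trimethoprim component of a 1:19 mixture.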

[2] = tested on: Mannheimia haemolytica; assay: minimum inhibitory concentration (MIC)
Procedure: as §1

CO/N=C(\C(=O)N[C@@H]1C(=O)N2C(C(=O)O)=C(CSC(=O)c3ccco3)CS[C@H]12)c1csc(N)n1 [Ceftiofur]
minimum inhibitory concentration [µg/mL]
Conditions	[1]	[2]
isolate (source animal id): 2	> 8	–
isolate (source animal id): 8	–	≤ 0.25
isolate (source animal id): 13	–	≤ 0.25
isolate (source animal id): 18	–	≤ 0.25
isolate (source animal id): 21	–	≤ 0.25
isolate (source animal id): 25	–	≤ 0.25
isolate (source animal id): 27	–	≤ 0.25
isolate (source animal id): 28	–	2 (≈ 3.82 µM)
isolate (source animal id): 30	–	≤ 0.25
isolate (source animal id): 31	–	≤ 0.25
isolate (source animal id): 32	–	≤ 0.25
isolate (source animal id): 34	–	≤ 0.25
isolate (source animal id): 35	> 8	–
isolate (source animal id): 36	–	≤ 0.25
isolate (source animal id): 37	–	≤ 0.25
isolate (source animal id): 40	–	≤ 0.25
isolate (source animal id): 41	–	≤ 0.25
isolate (source animal id): 42	8 (≈ 15.3 µM)	–
isolate (source animal id): 43	–	≤ 0.25
isolate (source animal id): 44	2 (≈ 3.82 µM)	–
isolate (source animal id): 46	–	≤ 0.25
isolate (source animal id): 49	–	≤ 0.25
isolate (source animal id): 50	–	≤ 0.25
isolate (source animal id): 51	–	≤ 0.25
isolate (source animal id): 52	–	≤ 0.25
isolate (source animal id): 53	–	≤ 0.25
isolate (source animal id): 55	–	≤ 0.25
isolate (source animal id): 56	–	≤ 0.25
isolate (source animal id): 57	–	≤ 0.25
isolate (source animal id): 79	4 (≈ 7.64 µM)	–
isolate (source animal id): 88	0.5 (≈ 0.955 µM)	–
isolate (source animal id): 91	0.5 (≈ 0.955 µM)	–
isolate (source animal id): 92	> 8	–
isolate (source animal id): 100	–	≤ 0.25
isolate (source animal id): 103	–	≤ 0.25
isolate (source animal id): 107	–	≤ 0.25
isolate (source animal id): 108	–	≤ 0.25
isolate (source animal id): 111	0.5 (≈ 0.955 µM)	–
isolate (source animal id): 112	–	≤ 0.25
isolate (source animal id): 113	–	≤ 0.25
isolate (source animal id): 121	–	≤ 0.25
isolate (source animal id): 122	> 8	≤ 0.25
isolate (source animal id): 123	> 8	≤ 0.25
isolate (source animal id): 126	–	≤ 0.25
isolate (source animal id): 133	> 8	≤ 0.25
isolate (source animal id): 135	–	≤ 0.25
isolate (source animal id): 138	–	≤ 0.25
isolate (source animal id): 141	–	≤ 0.25
isolate (source animal id): 142	–	≤ 0.25
isolate (source animal id): 145	–	≤ 0.25
isolate (source animal id): 149	–	≤ 0.25
isolate (source animal id): 151	–	≤ 0.25
isolate (source animal id): 152	–	≤ 0.25
isolate (source animal id): 154	–	≤ 0.25
isolate (source animal id): 158	> 8	–
isolate (source animal id): 159	–	≤ 0.25
isolate (source animal id): 162	–	≤ 0.25
isolate (source animal id): 168	> 8	–
isolate (source animal id): 169	> 8	–
isolate (source animal id): 170	–	≤ 0.25
isolate (source animal id): 171	> 8	≤ 0.25
isolate (source animal id): 172	–	≤ 0.25
isolate (source animal id): 173	–	≤ 0.25
isolate (source animal id): 175	> 8	–
isolate (source animal id): 177	> 8	–
isolate (source animal id): 179	–	≤ 0.25
isolate (source animal id): 180	–	≤ 0.25
isolate (source animal id): 181	> 8	–
isolate (source animal id): 182	> 8	–
isolate (source animal id): 183	4 (≈ 7.64 µM)	≤ 0.25
isolate (source animal id): 186	–	≤ 0.25
isolate (source animal id): 187	> 8	≤ 0.25
isolate (source animal id): 188	–	≤ 0.25
isolate (source animal id): 190	> 8	≤ 0.25
isolate (source animal id): 191	–	≤ 0.25
isolate (source animal id): 192	–	≤ 0.25
isolate (source animal id): 194	> 8	–
isolate (source animal id): 195	> 8	–
isolate (source animal id): 197	4 (≈ 7.64 µM)	–
isolate (source animal id): 201	–	≤ 0.25
isolate (source animal id): 202	–	≤ 0.25
isolate (source animal id): 209	–	≤ 0.25
isolate (source animal id): 211	> 8	≤ 0.25
isolate (source animal id): 214	8 (≈ 15.3 µM)	–
isolate (source animal id): 220	–	≤ 0.25
isolate (source animal id): 221	–	≤ 0.25
isolate (source animal id): 222	> 8	–
isolate (source animal id): 223	> 8	≤ 0.25
isolate (source animal id): 228	> 8	–
isolate (source animal id): 230	> 8	–
isolate (source animal id): 233	–	≤ 0.25
isolate (source animal id): 235	> 8	–
isolate (source animal id): 236	> 8	–
isolate (source animal id): 237	–	≤ 0.25
isolate (source animal id): 239	2 (≈ 3.82 µM)	–
isolate (source animal id): 241	> 8	≤ 0.25
isolate (source animal id): 244	> 8	–
isolate (source animal id): 246	> 8	–
isolate (source animal id): 247	> 8	–
isolate (source animal id): 250	> 8	–
isolate (source animal id): 252	> 8	≤ 0.25
isolate (source animal id): 253	–	≤ 0.25
isolate (source animal id): 259	–	≤ 0.25
isolate (source animal id): 260	–	≤ 0.25
isolate (source animal id): 262	–	≤ 0.25
isolate (source animal id): 268	0.5 (≈ 0.955 µM)	–
isolate (source animal id): 282	> 8	≤ 0.25
isolate (source animal id): 285	> 8	–
isolate (source animal id): 287	–	≤ 0.25
isolate (source animal id): 288	–	≤ 0.25
isolate (source animal id): 289	8 (≈ 15.3 µM)	–
isolate (source animal id): 290	8 (≈ 15.3 µM)	–
isolate (source animal id): 291	–	≤ 0.25
isolate (source animal id): 293	–	≤ 0.25
isolate (source animal id): 296	> 8	–
isolate (source animal id): 298	≤ 0.25	≤ 0.25
isolate (source animal id): 299	–	≤ 0.25
isolate (source animal id): 300	–	≤ 0.25
isolate (source animal id): 301	8 (≈ 15.3 µM)	–
isolate (source animal id): 302	–	≤ 0.25
isolate (source animal id): 304	–	≤ 0.25
isolate (source animal id): 306	–	≤ 0.25
isolate (source animal id): 308	–	≤ 0.25
isolate (source animal id): 309	–	≤ 0.25
isolate (source animal id): 310	> 8	–
isolate (source animal id): 313	–	≤ 0.25
isolate (source animal id): 318	–	≤ 0.25
isolate (source animal id): 320	8 (≈ 15.3 µM)	≤ 0.25
isolate (source animal id): 321	–	≤ 0.25
isolate (source animal id): 323	–	≤ 0.25
isolate (source animal id): 324	–	≤ 0.25
isolate (source animal id): 326	–	≤ 0.25
isolate (source animal id): 328	–	≤ 0.25
isolate (source animal id): 329	–	≤ 0.25
isolate (source animal id): 331	2 (≈ 3.82 µM)	–
isolate (source animal id): 333	2 (≈ 3.82 µM)	≤ 0.25
isolate (source animal id): 335	–	≤ 0.25
isolate (source animal id): 338	–	≤ 0.25
isolate (source animal id): 341	2 (≈ 3.82 µM)	–
